In article PMC6761391, “Blockade of Mas Receptor or Mas-Related G-Protein Coupled Receptor Type D Reduces Portal Pressure in Cirrhotic but Not in Non-cirrhotic Portal Hypertensive Rats” (Frontiers in Physiology, 2019):
Structures can show the parent of a compound that is named as a salt. Each block holds one molecule with its values, some of them ahead of it. Non-standard residues stand in square brackets, D forms with d. Residues, ends and D or L forms follow the SMILES beside them.

Key:
MasR = conditions: ref Santos et al., 2003; cited from earlier work
Text: Although it is well known that Ang (1-7) produces its effects by binding to MasR and MrgD ([Santos et al., 2003]; [Tetzner et al., 2016]), early cell culture studies have reported some actions of Ang-(1-7) were mediated via the subtypes of AT1R ([Muthalif et al., 1998]; [[…] et al., 2001]). Some studies also proposed that MasR may interact with AT1R by receptor hetero-dimerization or alterations in post-receptor signaling ([Castro et al., 2005]; [Kostenis et al., 2005]; [Tesanovic et al., 2010]; [Castelo-Branco et al., 2017]; [O'Neill et al., 2017]), which in turn leads to the inhibition o ...

[1] = system: cirrhotic carbon tetrachloride (CCl4) injected rats; assay: Portal pressure (PP) measurement in cirrhotic CCl4 rats after intravenous bolus injection; type: in vivo, Sprague Dawley rats
Experimental: (§1) Six-week-old male Sprague Dawley rats (200–250 g BW) were used to induce cirrhosis and PHT by injections of carbon tetrachloride (CCl4) as described previously ([Fallowfield et al., 2014]). Rats were housed in a controlled environment as described above. CCl4 was administered twice weekly via intraperitoneal injections, at a dose of 1 ml/kg, mixed with 1:1 ratio with olive oil. After 10 weeks of CCl4 administration, the rats were used for receptor blocker infusion experiments.
(§2) Four weeks after BDL, 10 weeks after CCl4 and 2 weeks after PPVL, the rats were anesthetized with ketamine/xylazine mixture (75 and 10 mg/kg BW, respectively, Therapon Pty Ltd). A median laparotomy was performed, and a small PE 10 polyethylene catheter (Microtube Extrusions, NSW, Australia) was inserted into a small ileocecal vein and advanced to the portal vein to measure PP. A skin incision was made in the left inner thigh to identify the left femoral artery and cannulated with a PE 10 catheter to measure the mean arterial pressure (MAP). Portal vein and femoral artery catheters were connected to a highly sensitive pressure transducer (Zultek Engineering, Melbourne, VIC, Australia). The left femoral vein was cannulated with a similar PE 10 catheter for bolus injections of the receptor blockers. After insertion of the catheters, the rats were allowed to stabilize hemodynamically for 30 min prior to interventions.
The baseline values of PP and MAP were recorded prior to injection of the drugs. For a single receptor blocker experiments, either MasR blocker A779 (10 μg/kg) ([Grace et al., 2013]), MrgD blocker D-Pro (10 μg/kg), or AT2R blocker PD123319 (1 mg/kg) ([Yang et al., 2011]) was administered intravenously via the femoral vein catheter as a single bolus injection. The dose was calculated for each individual rat according to body weight. The bolus injection was prepared by dissolving a stock solution of […] (A779 or D-Pro) or 10 mg/ml (PD123319) in 0.9% NaCl to make a minimum injectable volume of 0.25 ml. This is to avoid variations in pressure due to adding volume to the circulation. After the bolus injection of the drug, the catheter was slowly flushed with 0.25 ml 20 IU/ml heparinized saline. Measurement of PP and MAP was continued for additional 30 min after injection (Figure 2A). Each treatment group of BDL, CCl4, and PPVL consisted of six to seven rats. For each model, a separate control group of animals (n = 6 per group) received saline injections for comparison with the treatment effects.
A separate set of experiments were carried out in the two cirrhotic PHT rat models (BDL and CCl4) to investigate whether the detrimental effects of AT1R blocker losartan on systemic arterial pressure can be counteracted by a second injection of either MasR or MrgD blockers; A779 or D-Pro, respectively. In this study, a bolus injection of losartan was administered and 20 min later, a bolus injection of either A779 or D-Pro was given. The pressure measurement was carried out for additional 20 min after the second injection (Figure 2B). A total of 18 BDL and 18 CCl4 rats were used (n = 6 per treatment group).

[2] = system: cirrhotic carbon tetrachloride (CCl4) injected rats; assay: Mean arterial pressure (MAP) measurement in CCl4 rats; type: in vivo, Sprague Dawley rats; conditions: CCl4 model
Experimental: as §1, §2
(§3) The baseline values of PP and MAP were recorded prior to injection of the drugs. For a single receptor blocker experiments, either MasR blocker A779 (10 μg/kg) ([Grace et al., 2013]), MrgD blocker D-Pro (10 μg/kg), or AT2R blocker PD123319 (1 mg/kg) ([Yang et al., 2011]) was administered intravenously via the femoral vein catheter as a single bolus injection. The dose was calculated for each individual rat according to body weight. The bolus injection was prepared by dissolving a stock solution of […] (A779 or D-Pro) or 10 mg/ml (PD123319) in 0.9% NaCl to make a minimum injectable volume of 0.25 ml. This is to avoid variations in pressure due to adding volume to the circulation. […]

[3] = system: cirrhotic bile duct ligated (BDL) rats; assay: Portal pressure (PP) measurement in cirrhotic bile duct ligated (BDL) rats after intravenous bolus injection; type: in vivo, Sprague Dawley rats
Experimental: (§4) Eight-week-old male Sprague Dawley rats (300–350 g BW) underwent bile duct ligation surgery (BDL) to induce cirrhosis and PHT. Rats were housed in a controlled environment with 12:12-h light to dark cycle with controlled temperature (22–24°C) and fed standard rat chow ad libitum (Norco, Lismore NSW, Australia) and water. After 1 week of acclimatization, the rats were anesthetized with isoflurane gaseous anesthesia (Therapon Pty Ltd., Victoria, Australia). The rats were also given a single dose of carprofen (5 mg/kg, Rimadyl, Australia) subcutaneously prior to surgery to limit post-operative discomfort. BDL surgery was performed as previously described ([Herath et al., 2007]). Briefly, a midline incision was made in the abdomen to enter the peritoneal cavity. The common bile duct was located and double ligated with 4/0 silk suture. The bile duct was then transacted between two ligatures. Intraoperatively, animals were kept warm on a heat pad and received 0.9% NaCl 10 ml/kg. The abdominal wall was closed in two layers using sterile 4/0 silk suture. Four weeks after BDL surgery, the rats were used for receptor blocker infusion experiments as described below.
as §2, §3

[4] = system: cirrhotic bile duct ligated (BDL) rats; assay: Mean arterial pressure (MAP) measurement in BDL rats; type: in vivo, Sprague Dawley rats; conditions: BDL model
Experimental: as §4
as §2, with “The left femoral vein was cannulated with a similar PE 10 catheter for bolus injections of the receptor blockers. After insertion of the catheters, the rats were allowed to stabilize hemodynamically for 30 min prior to interventions.” left out
(§5) The baseline values of PP and MAP were recorded prior to injection of the drugs. […] The dose was calculated for each individual rat according to body weight. […]

[5] = In vivo angiotensin (1-7) peptide metabolism assay (plasma concentration by radioimmunoassay); conditions: BDL rats, 10 μg/kg i.v. bolus; for time of peak plasma concentration post-injection: blood at 30 s, 1, 2, 5 min, Ang-(1-7) radioimmunoassay (cross-reactivity for A779 and D-Pro not determined); for time of peak plasma concentration post-injection / time for circulating peptide levels to return to baseline levels after injection: 4 rats per group, plasma; for time for circulating peptide levels to return to baseline levels after injection: Ang-(1-7) radioimmunoassay; for fate in the rat circulation following a bolus injection: circulating concentrations by radioimmunoassay
Experimental: To determine the longevity of the angiotensin peptides in the rat circulation, a separate set of experiments was carried out using BDL rats. Four weeks after BDL, the rats were anesthetized with ketamine/xylazine mixture and the femoral artery and vein were cannulated using PE-10 catheters as described previously ([Grace et al., 2013]). After 30 min of stabilization, 1 ml of blood was drawn from the femoral artery as the baseline sample into an Eppendorf tube containing protease inhibitor mix (20 μl/ml of blood: 50 mmol/L Na2 EDTA, 0.2 mol/L N-ethylmaleimide, 21,000 U/ml aprotonin, 5 mg/ml leupeptin, and 1 mg/ml pepstatin; prepared fresh daily and kept on ice) to prevent breakdown of angiotensin peptides. Injection of either MasR or MrgD blockers, A779 or D-Pro (10 μg/kg), respectively, was performed thereafter via the femoral vein catheter. Blood samples were collected at 30 s, 1, 2, and 5 min after injection. A separate group of rats was injected with Ang-(1-7) peptide (10 μg/kg) and blood was collected as before. After completion of the experiment, the rats were euthanized by exsanguination. Blood samples were centrifuged at 4,000 rpm for 10 min to harvest plasma. Radioimmunoassay for Ang-(1-7) (Prosearch International, Australia, Pty Ltd) was performed to determine plasma concentration of peptide blockers and Ang-(1-7) at different time points. Twelve BDL rats were used for the experiment, with four rats in each of the three treatment groups. The extent of cross-reactivity for D-Ala (A779) and D-Pro was not determined for the Ang-(1-7) radioimmunoassay.

[6] = system: non-cirrhotic partial portal vein ligated (PPVL) rats; assay: Mean arterial pressure (MAP) measurement in PPVL rats; type: in vivo, Sprague Dawley rats; conditions: single i.v. bolus (A779, D-Pro 10 μg/kg; PD123319 1 mg/kg)
Experimental: (§6) Eight-week-old male Sprague Dawley rats (300–350 g BW) were used to induce non-cirrhotic portal hypertension by partial portal vein ligation (PPVL) surgery as described previously ([Kahn et al., 1988]). Briefly, under gaseous anesthesia, a median laparotomy was performed and the portal vein was identified. A 19G needle was placed alongside the length of the portal vein, and a 4/0 silk suture was tied around the portal vein and the needle. The needle was then removed creating a calibrated stenosis in the portal vein, partially obstructing the portal flow. The abdominal wall was closed in two layers using sterile 4/0 silk suture. Two weeks after PPVL, the rats were used for receptor blocker infusion experiments.
(§7) Four weeks after BDL, 10 weeks after CCl4 and 2 weeks after PPVL, the rats were anesthetized with ketamine/xylazine mixture (75 and 10 mg/kg BW, respectively, Therapon Pty Ltd). A median laparotomy was performed, and a small PE 10 polyethylene catheter (Microtube Extrusions, NSW, Australia) was inserted into a small ileocecal vein and advanced to the portal vein to measure PP. […]
as §5

MrgD = conditions: HEK293 cells transfected with MrgD; ref Tetzner et al., 2016; cited from earlier work
Text: There is some evidence that ATR2 also mediates Ang-(1-7) action. This was based on observations that the vasodilatory effects of Ang-(1-7) in vivo ([Heitsch et al., 2001]) and ex vivo and in vitro ([Tesanovic et al., 2010]; [Grace et al., 2013]) were inhibited by AT2R blockade with PD123319.

[7] = system: non-cirrhotic partial portal vein ligated (PPVL) rats; assay: Portal pressure (PP) measurement in non-cirrhotic PPVL rats after intravenous bolus injection; type: in vivo, Sprague Dawley rats; conditions: non-cirrhotic PPVL rat model; single i.v. bolus (A779, D-Pro 10 μg/kg; PD123319 1 mg/kg)
Experimental: as §6, §7, §5

[8] = CCl4 model, losartan 1 mg/kg i.v. bolus
[9] = losartan 1 mg/kg i.v. bolus, 12 to 14 rats
[10] = BDL model, losartan 1 mg/kg i.v. bolus
[11] = CCl4 model, single i.v. bolus (A779, D-Pro 10 μg/kg; PD123319 1 mg/kg)

SMILES: CCCCc1nc(Cl)c(CO)n1Cc1ccc(-c2ccccc2-c2nn[nH]n2)cc1 [losartan, losartan hydrochloride]
ligand for MasR (MasR): not a ligand for MasR
duration of portal pressure lowering effect post-intervention [1, 8]: up to 30 min
start of PP reduction post-injection [1, 8]: 5 min
change in PP from baseline pressure ([1]; CCl4 model, losartan 1 mg/kg i.v. bolus, 12 to 14 rats): significant (p < 0.01) reduction in PP
start of MAP reduction post-injection ([2]; losartan 1 mg/kg i.v. bolus): 10 min
change in MAP from baseline [2, 9]: significantly (p < 0.01) reduced MAP
duration of portal pressure lowering effect post-intervention [3, 10]: up to 30 min
start of PP reduction post-injection [3, 10]: 5 min
change in PP from baseline pressure ([3]; BDL model, losartan 1 mg/kg i.v. bolus, 12 to 14 rats): significant (p < 0.01) reduction in PP
start of MAP reduction post-injection ([4]; losartan 1 mg/kg i.v. bolus): 5 min
change in MAP from baseline [4, 9]: significantly (p < 0.01) reduced MAP

SMILES: Cc1cc(Cn2cnc3c2C[C@@H](C(=O)O)N(C(=O)C(c2ccccc2)c2ccccc2)C3)ccc1N(C)C [PD123319]
effect on mean arterial pressure (MAP) [6]: no effect on MAP
maximum reduction in portal pressure [1, 11]: 4.8%
time for which the reduction in PP persisted after injection [1, 11]: up to 20 min
change in portal pressure (PP) from baseline ([1]; CCl4 rats, single i.v. bolus (A779, D-Pro 10 μg/kg; PD123319 1 mg/kg), measured at 5 min post-injection, six to seven rats per group): significant reduction in PP
effect on mean arterial pressure (MAP) ([2]; single i.v. bolus (A779, D-Pro 10 μg/kg; PD123319 1 mg/kg)): no effect on MAP
block of Ang-(1-7)-stimulated cAMP release (MrgD): completed blocked
effect on portal pressure (PP) [7]: failed to reduce PP
portal pressure reduction ([3]; BDL rats, PD123319 1 mg/kg i.v. bolus): not statistically significant
effect on mean arterial pressure (MAP) ([4]; single i.v. bolus PD123319 1 mg/kg): no effect on MAP

SMILES: CC[C@H](C)[C@H](NC(=O)[C@H](Cc1ccc(O)cc1)NC(=O)[C@@H](NC(=O)[C@H](CCCNC(=N)N)NC(=O)[C@@H](N)CC(=O)O)C(C)C)C(=O)N[C@@H](Cc1cnc[nH]1)C(=O)N[C@H](C)C(=O)O [A779] (H-DRVYIH[dA]-OH)
time of peak plasma concentration post-injection [5]: 2 min
fate in the rat circulation following a bolus injection [5]: rapidly degraded in the rat circulation
time for circulating peptide levels to return to baseline levels after injection [5]: ≤ 5 min

Now from value to molecule:

time of peak plasma concentration post-injection [5]: 2 min
time for circulating peptide levels to return to baseline levels after injection [5]: ≤ 5 min
SMILES: CC[C@H](C)[C@H](NC(=O)[C@H](Cc1ccc(O)cc1)NC(=O)[C@@H](NC(=O)[C@H](CCCNC(=N)N)NC(=O)[C@@H](N)CC(=O)O)C(C)C)C(=O)N[C@@H](Cc1c[nH]cn1)C(=O)N1CCC[C@H]1C(=O)O [Ang-(1-7), Angiotensin (1-7)]

time of peak plasma concentration post-injection [5]: 2 min
fate in the rat circulation following a bolus injection [5]: rapidly degraded in the rat circulation
time for circulating peptide levels to return to baseline levels after injection [5]: ≤ 5 min
SMILES: CC[C@H](C)[C@H](NC(=O)[C@H](Cc1ccc(O)cc1)NC(=O)[C@@H](NC(=O)[C@H](CCCN=C(N)N)NC(=O)[C@@H](N)CC(=O)O)C(C)C)C(=O)N[C@@H](Cc1c[nH]cn1)C(=O)N1CCC[C@@H]1C(=O)O [D-Pro, D-Pro^7-Ang-(1-7)]
